Measured values: patent US8993586B2, “N1/N2-lactam acetyl-CoA carboxylase inhibitors” (Pfizer Inc., priority 2010, dated 2015)

Columns and labels:
[1] = target: recombinant human ACC1 (rhACC1) (Homo sapiens (Human), UniProt Q13085); experiment: recombinant hACC1 Transcreener ADP detection FP assay; format: biochemical; details: 50 μM ATP, 120 min at 25° C.
Procedure: (§1) For example direct inhibition of ACC activity, for the compound of Formula (I) was determined using preparations of recombinant human ACC1 (rhACC1) and recombinant human ACC2 (rhACC2).
[1] Preparation of rhACC1. Two liters of SF9 cells, infected with recombinant baculovirus containing full length human ACC1 cDNA, were suspended in ice-cold lysis buffer (25 mM Tris, pH 7.5; 150 mM NaCl; 10% glycerol; 5 mM imidazole (EMD Bioscience; Gibbstown, N.J.); 2 mM TCEP (BioVectra; Charlottetown, Canada); Benzonase nuclease (10000 U/100 g cell paste; Novagen; Madison, Wis.); EDTA-free protease inhibitor cocktail (1 tab/50 mL; Roche Diagnostics; Mannheim, Germany). Cells were lysed by 3 cycles of freeze-thaw and centrifuged at 40,000×g for 40 minutes (4° C.). Supernatant was directly loaded onto a HisTrap FF crude column (GE Healthcare; Piscataway, N.J.) and eluted with an imidazole gradient up to 0.5 M over 20 column volumes (CV). ACC1-containing fractions were pooled and diluted 1:5 with 25 mM Tris, pH 7.5, 2 mM TCEP, 10% glycerol and direct loaded onto a CaptoQ (GE Healthcare) column and eluted with an NaCl gradient up to 1 M over 20 CV's. Phosphate groups were removed from purified ACC1 by incubation with lambda phosphatase (100 U/10 μM target protein; New England Biolabs; Beverly, Mass.) for 14 hours at 4° C.; okadaic acid was added (1 μM final concentration; Roche Diagnostics) to inhibit the phosphatase. Purified ACC1 was exchanged into 25 mM Tris, pH 7.5, 2 mM TCEP, 10% glycerol, 0.5 M NaCl by 6 hour dialysis at 4° C. Aliquots were prepared and frozen at −80° C.
[2] Measurement of rhACC1 inhibition. hACC1 was assayed in a Costar #3676 (Costar, Cambridge, Mass.) 384-well plate using the Transcreener ADP detection FP assay kit (Bellbrook Labs, Madison, Wis.) using the manufacturer's recommended conditions for a 50 μM ATP reaction. The final conditions for the assay were 50 mM HEPES, pH 7.2, 10 mM MgCl2, 7.5 mM tripotassium citrate, 2 mM DTT, 0.1 mg/mL BSA, 30 μM acetyl-CoA, 50 μM ATP, and 10 mM KHCO3 Typically, a 10 μl reaction was run for 120 min at 25° C., and 10 μl of Transcreener stop and detect buffer was added and the combination incubated at room temp for an additional 1 hour. The data was acquired on a Envision Fluorescence reader (PerkinElmer) using a 620 excitation Cy5 FP general dual mirror, 620 excitation Cy5 FP filter, 688 emission (S) and a 688 (P) emission filter.

[2] = target: recombinant human ACC2 (rhACC2) (Homo sapiens (Human), UniProt O00763); experiment: recombinant hACC2 Transcreener ADP detection FP assay; format: biochemical; details: 50 uM ATP, 50 min at 25° C.
Procedure: as §1
[3] Preparation of rhACC2. Human ACC2 inhibition was measured using purified recombinant human ACC2 (hrACC2). Briefly, a full length Cytomax clone of ACC2 was purchased from Cambridge Bioscience Limited and was sequenced and subcloned into PCDNA5 FRT TO-TOPO (Invitrogen, Carlsbad, Calif.). The ACC2 was expressed in CHO cells by tetracycline induction and harvested in 5 liters of DMEM/F12 with glutamine, biotin, hygromycin and blasticidin with 1 μg/mL tetracycline (Invitrogen, Carlsbad, Calif.). The conditioned medium containing ACC2 was then applied to a Softlink Soft Release Avidin column (Promega, Madison, Wis.) and eluted with 5 mM biotin. […] The purified ACC2 was dialyzed in 50 mM Tris, 200 mM NaCl, 4 mM DTT, 2 mM EDTA, and 5% glycerol. […] For measurement of ACC2 activity and assessment of ACC2 inhibition, test compounds were dissolved in DMSO and added to the rhACC2 enzyme as a 5× stock with a final DMSO concentration of 1%.
[4] Measurement of human ACC2 inhibition. hACC2 was assayed in a Costar #3676 (Costar, Cambridge, Mass.) 384-well plate using the Transcreener ADP detection FP assay kit (Bellbrook Labs, Madison, Wis.) using the manufacturer's recommended conditions for a 50 uM ATP reaction. The final conditions for the assay were 50 mM HEPES, pH 7.2, 5 mM MgCl2, 5 mM tripotassium citrate, 2 mM DTT, 0.1 mg/mL BSA, 30 μM acetyl-CoA, 50 μM ATP, and 8 mM KHCO3 Typically, a 10 μl reaction was run for 50 min at 25° C., and 10 μl of Transcreener stop and detect buffer was added and the combination incubated at room temp for an additional 1 hour. The data was acquired on an Envision Fluorescence reader (PerkinElmer) using a 620 excitation Cy5 FP general dual mirror, 620 excitation Cy5 FP filter, 688 emission (S) and a 688 (P) emission filter.

recombinant human ACC2 (rhACC2), sequence (O00763 whole entry V2141I): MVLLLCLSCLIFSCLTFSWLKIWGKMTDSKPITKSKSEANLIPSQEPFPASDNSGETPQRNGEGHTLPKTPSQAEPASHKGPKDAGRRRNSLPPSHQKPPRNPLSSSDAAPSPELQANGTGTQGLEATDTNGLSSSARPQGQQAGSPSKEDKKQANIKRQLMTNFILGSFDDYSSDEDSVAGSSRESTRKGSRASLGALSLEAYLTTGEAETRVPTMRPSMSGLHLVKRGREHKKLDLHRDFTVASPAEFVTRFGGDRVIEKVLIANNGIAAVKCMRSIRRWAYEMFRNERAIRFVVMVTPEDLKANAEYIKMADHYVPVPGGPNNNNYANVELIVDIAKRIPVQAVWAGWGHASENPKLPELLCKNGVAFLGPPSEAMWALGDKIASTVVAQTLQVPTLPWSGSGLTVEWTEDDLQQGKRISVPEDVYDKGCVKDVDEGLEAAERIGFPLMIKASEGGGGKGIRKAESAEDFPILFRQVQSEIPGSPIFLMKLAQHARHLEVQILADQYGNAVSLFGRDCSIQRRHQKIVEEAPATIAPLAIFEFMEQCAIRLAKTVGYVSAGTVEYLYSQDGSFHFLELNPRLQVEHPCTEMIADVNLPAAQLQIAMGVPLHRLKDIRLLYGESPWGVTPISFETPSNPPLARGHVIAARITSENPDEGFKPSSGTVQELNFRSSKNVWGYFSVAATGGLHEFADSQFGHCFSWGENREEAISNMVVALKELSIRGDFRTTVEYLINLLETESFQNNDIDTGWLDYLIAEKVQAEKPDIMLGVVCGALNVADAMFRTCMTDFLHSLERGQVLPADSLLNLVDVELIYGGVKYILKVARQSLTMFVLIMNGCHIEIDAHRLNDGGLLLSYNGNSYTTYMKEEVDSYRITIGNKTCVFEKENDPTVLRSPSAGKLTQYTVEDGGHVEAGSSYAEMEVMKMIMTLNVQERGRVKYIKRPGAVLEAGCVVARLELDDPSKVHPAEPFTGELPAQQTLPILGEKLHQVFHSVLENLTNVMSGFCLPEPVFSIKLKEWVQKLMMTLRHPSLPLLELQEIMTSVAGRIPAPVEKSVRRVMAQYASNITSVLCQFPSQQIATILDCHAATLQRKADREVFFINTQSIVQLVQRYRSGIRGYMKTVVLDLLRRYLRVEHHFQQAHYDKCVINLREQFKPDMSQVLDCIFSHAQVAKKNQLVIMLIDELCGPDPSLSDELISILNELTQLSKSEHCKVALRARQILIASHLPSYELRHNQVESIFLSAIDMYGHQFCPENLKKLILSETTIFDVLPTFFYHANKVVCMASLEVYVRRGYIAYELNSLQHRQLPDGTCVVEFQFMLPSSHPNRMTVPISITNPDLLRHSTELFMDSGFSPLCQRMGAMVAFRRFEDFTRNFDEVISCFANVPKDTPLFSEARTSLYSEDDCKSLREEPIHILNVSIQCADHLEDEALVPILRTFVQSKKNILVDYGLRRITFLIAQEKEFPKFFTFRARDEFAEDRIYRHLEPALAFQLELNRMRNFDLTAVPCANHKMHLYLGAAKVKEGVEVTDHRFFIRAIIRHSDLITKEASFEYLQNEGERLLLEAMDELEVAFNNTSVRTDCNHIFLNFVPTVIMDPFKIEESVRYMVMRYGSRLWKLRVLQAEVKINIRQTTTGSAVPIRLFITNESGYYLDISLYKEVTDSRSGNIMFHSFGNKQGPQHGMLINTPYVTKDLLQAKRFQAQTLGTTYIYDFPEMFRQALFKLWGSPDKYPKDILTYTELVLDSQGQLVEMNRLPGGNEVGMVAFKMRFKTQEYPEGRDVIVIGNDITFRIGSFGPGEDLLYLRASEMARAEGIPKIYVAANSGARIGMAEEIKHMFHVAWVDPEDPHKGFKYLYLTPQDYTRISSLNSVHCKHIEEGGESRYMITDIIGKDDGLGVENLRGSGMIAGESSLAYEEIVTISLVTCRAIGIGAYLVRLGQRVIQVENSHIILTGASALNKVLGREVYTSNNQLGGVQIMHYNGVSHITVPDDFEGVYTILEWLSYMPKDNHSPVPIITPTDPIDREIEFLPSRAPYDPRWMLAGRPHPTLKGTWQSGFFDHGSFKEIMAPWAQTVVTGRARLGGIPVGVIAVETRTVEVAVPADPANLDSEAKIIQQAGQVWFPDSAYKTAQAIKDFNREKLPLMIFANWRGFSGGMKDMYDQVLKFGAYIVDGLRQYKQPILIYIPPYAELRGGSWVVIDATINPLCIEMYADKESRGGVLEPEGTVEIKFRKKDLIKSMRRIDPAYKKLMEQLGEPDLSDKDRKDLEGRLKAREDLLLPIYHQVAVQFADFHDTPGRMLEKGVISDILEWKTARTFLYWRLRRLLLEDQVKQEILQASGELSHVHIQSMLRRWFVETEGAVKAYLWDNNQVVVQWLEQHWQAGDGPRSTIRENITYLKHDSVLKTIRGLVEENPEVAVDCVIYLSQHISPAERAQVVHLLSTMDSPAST

| SMILES | IC50 [1] [nM] | IC50 [2] [nM] |
| --- | --- | --- |
| CNc1n[nH]c2cc(C(=O)N3CCC4(CC3)Cc3cn(C(C)(C)C)nc3C(=O)N4)ccc12 [Example 89] | 343 | 44 |
| CCCNc1nccc2ccc(C(=O)N3CCC4(CC3)Cc3cn(C(C)(C)C)nc3C(=O)N4)cc12 [Example 119] | 24 | 2.5 |
| COc1cccc2ccc(C(=O)N3CCC4(CC3)Cc3cn(C(C)(C)C)nc3C(=O)N4)cc12 [Example 70] | 5.8 | 2.4 |
| CC(C)(C)n1cc2c(n1)C(=O)NC1(CCN(C(=O)c3ccc4ncccc4c3)CC1)C2 [Example 63] | 160 | 28 |
| COc1cc(C(=O)N2CCC3(CC2)Cc2cn(C(C)(C)C)nc2C(=O)N3)cc2[nH]ncc12 [Example 66] | 17 | 2.4 |
| Cc1cc(C(=O)N2CCC3(CC2)Cc2cnn(C(C)C)c2C(=O)N3)cc2c[nH]nc12 [Example 4] | 43 | 38 |
| CC(C)(C)n1cc2c(n1)C(=O)NC1(CCN(C(=O)c3ccc4cnc(N)cc4c3)CC1)C2 [Example 59] | 123 | 14 |
| CCc1n[nH]c2ccc(C(=O)N3CCC4(CC3)Cc3cnn(C(C)C)c3C(=O)N4)cc12 [Example 15] | 251 | 143 |
| CC(C)n1ncc2c1C(=O)NC1(CCN(C(=O)c3ccc4[nH]nc(C#N)c4c3)CC1)C2 [Example 25] | 259 | 137 |
| COc1cc(C(=O)N2CCC3(CC2)Cc2cnn(C(C)C)c2C(=O)N3)nc2c(OC)cccc12 [Example 17] | 72 | 31 |
| Cc1nc2cc(C(=O)N3CCC4(CC3)Cc3cn(C(C)C)nc3C(=O)N4)ccc2[nH]1 [Example 40] | 656 | 177 |
| COc1nccc2cc(C(=O)N3CCC4(CC3)Cc3cn(C(C)(C)C)nc3C(=O)N4)ccc12 [Example 92] | 244 | 55 |
| CC(C)(C)n1cc2c(n1)C(=O)NC1(CCN(C(=O)c3ccc4c(N)nccc4c3)CC1)C2 [Example 101, 1-(1-aminoisoquinoline-6-carbonyl)-2′-tert-butyl-4′,6′-dihydrospiro[piperidine-4,5′-pyrazolo[3,4-c]pyridin]-7′(2′H)-one] | 160 | 26 |
| COc1cc(C(=O)N2CCC3(CC2)Cc2cn(C(C)(C)C)nc2C(=O)N3)nc2c(OC)cccc12 [Example 51] | 15 | 4.4 |
| CNc1nccc2cc(C(=O)N3CCC4(CC3)Cc3cn(C(C)(C)C)nc3C(=O)N4)ccc12 [Example 91] | 240 | 51 |

Next, values leading:

| IC50 [1] [nM] | IC50 [2] [nM] | SMILES |
| --- | --- | --- |
| 20 | 4.7 | CC(C)Nc1nccc2ccc(C(=O)N3CCC4(CC3)Cc3cn(C(C)(C)C)nc3C(=O)N4)cc12 [Example 116] |
| 7.5 | 2.6 | CC(C)(C)n1cc2c(n1)C(=O)NC1(CCN(C(=O)c3ccc4ccc(NC5CC5)nc4c3)CC1)C2 [Example 106] |
| 43 | 14 | CC(C)(C)n1cc2c(n1)C(=O)NC1(CCN(C(=O)c3ccc4[nH]nc(C#N)c4c3)CC1)C2 [Example 60] |
| 4820 | 612 | Cc1n[nH]c2c(C)cc(C(=O)N3C4CCC3CC3(Cc5cn(C(C)(C)C)nc5C(=O)N3)C4)cc12 (stereo not drawn) [Example 114] |
| 78 | 6.3 | CC(C)(C)Nc1nccc2ccc(C(=O)N3CCC4(CC3)Cc3cn(C(C)(C)C)nc3C(=O)N4)cc12 [Example 123, 2′-(tert-butyl)-1-(1-(tert-butylamino)isoquinoline-7-carbonyl)-4′,6′-dihydrospiro[piperidine-4,5′-pyrazolo[3,4-c]pyridin]-7′(2′H)-one] |
| 33 | 9.2 | CNc1ccc2ccc(C(=O)N3CCC4(CC3)Cc3cnn(C(C)C)c3C(=O)N4)cc2n1 [Example 29] |
| 336 | 299 | CC(C)n1ncc2c1C(=O)NC1(CCN(C(=O)c3cnc4ccccc4c3)CC1)C2 [Example 20] |
| 131 | 91 | CCc1cc(C(=O)N2CCC3(CC2)Cc2cnn(C(C)C)c2C(=O)N3)cc2cn[nH]c12 [Example 14] |
| 48 | 5.5 | CNc1cc2cc(C(=O)N3CCC4(CC3)Cc3cn(C(C)(C)C)nc3C(=O)N4)ccc2cn1 [Example 73] |
